Reference: US20230085307A1, “PYRIDAZINONE COMPOUND AND HERBICIDE” (NISSAN CHEMICAL CORPORATION, priority 2019, published 2023)

How the values were obtained:
[1] = tested on: late watergrass; assay: Test Example 1: herbicidal activity, application before weed generation under submerged conditions (Table 16, symbol A); format: in vivo, late watergrass (Echinochloa oryzicola); conditions: amount of applied herbicide 320 g/ha
Outline: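 Submerged Wagner pots (alluvial soil, 4 cm water) sown with weed seeds and planted with 2.5-leaf rice seedlings; emulsifiable concentrate diluted in water applied to water surface on sowing day. Held in greenhouse at 25-30 °C; injury scored 0-5 by herbicidal rate after three weeks.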

[2] = tested on: Italian ryegrass; assay: Test Example 5: herbicidal effect by foliage application, plastic box (Table 20, symbol K); format: in vivo, Italian ryegrass (Lolium multiflorum); conditions: 320 g/ha, foliage application after 14-day growth, evaluated three weeks after application
Outline: (§1)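 Plants were sown into sterilized diluvial soil under about 1.5 cm cover and kept in a greenhouse at 25° C. to 30° C. Fourteen days on, foliage received an even spray of the diluted emulsion. Herbicidal or crop effect was judged three weeks afterwards.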

[3] = tested on: persian speedwell; assay: Test Example 4: herbicidal effect by soil treatment (Table 19, symbol R); format: in vivo, Persian speedwell (Veronica persica); conditions: amount of applied herbicide 320 g/ha
Outline: (§2)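 Pre-emergence style soil spray: seeds under ~1.5 cm sterilized diluvial soil received a uniform coat of emulsion diluted to the predetermined herbicide amount. Greenhouse 25–30° C; readout at week three on previously defined criteria.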

[4] = tested on: blackgrass; assay: Test Example 4: herbicidal effect by soil treatment (Table 19, symbol J); format: in vivo, blackgrass (Alopecurus myosuroides); conditions: amount of applied herbicide 320 g/ha
Outline: as §2

[5] = tested on: chickweed; assay: Test Example 5: herbicidal effect by foliage application, plastic box (Table 20, symbol P); format: in vivo, common chickweed (Stellaria media); conditions: 320 g/ha, foliage application after 14-day growth, evaluated three weeks after application
Outline: as §1

[6] = tested on: chickweed; assay: Test Example 4: herbicidal effect by soil treatment (Table 19, symbol P); format: in vivo, common chickweed (Stellaria media); conditions: amount of applied herbicide 320 g/ha
Outline: as §2

[7] = tested on: redroot pigweed; assay: Test Example 5: herbicidal effect by foliage application, plastic box (Table 20, symbol N); format: in vivo, redroot pigweed (Amaranthus retroflexus); conditions: 320 g/ha, foliage application after 14-day growth, evaluated three weeks after application
Outline: as §1

[8] = tested on: late watergrass; assay: Test Example 2: herbicidal activity, application during weed generation under submerged conditions (Table 17, symbol A); format: in vivo, late watergrass (Echinochloa oryzicola); conditions: AAH 320 g/ha; application during weed generation, submerged conditions
Outline: (§3)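 In this pot test, flooded alluvial soil (water depth 4 cm) holds all three species sown as a mixture. Once seedlings have one to two leaves, the compound's emulsion, thinned with water to the intended dose, is poured on the water; grading follows after three weeks on the earlier criteria.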

[9] = tested on: wild oat; assay: Test Example 4: herbicidal effect by soil treatment (Table 19, symbol I); format: in vivo, wild oat (Avena fatua); conditions: amount of applied herbicide 320 g/ha
Outline: as §2

[10] = tested on: Japanese bulrush; assay: Test Example 2: herbicidal activity, application during weed generation under submerged conditions (Table 17, symbol B); format: in vivo, Japanese bulrush (Schoenoplectus juncoides); conditions: AAH 320 g/ha; application during weed generation, submerged conditions
Outline: as §3

[11] = tested on: oval-leafed pondweed; assay: Test Example 2: herbicidal activity, application during weed generation under submerged conditions (Table 17, symbol C); format: in vivo, oval-leafed pondweed (Monochoria vaginalis); conditions: AAH 320 g/ha; application during weed generation, submerged conditions
Outline: as §3

[12] = tested on: Italian ryegrass; assay: Test Example 4: herbicidal effect by soil treatment (Table 19, symbol K); format: in vivo, Italian ryegrass (Lolium multiflorum); conditions: amount of applied herbicide 320 g/ha
Outline: as §2

[13] = tested on: blackgrass; assay: Test Example 5: herbicidal effect by foliage application, plastic box (Table 20, symbol J); format: in vivo, blackgrass (Alopecurus myosuroides); conditions: 320 g/ha, foliage application after 14-day growth, evaluated three weeks after application
Outline: as §1

[14] = tested on: lambsquarters; assay: Test Example 4: herbicidal effect by soil treatment (Table 19, symbol O); format: in vivo, lambsquarters (Chenopodium album); conditions: amount of applied herbicide 320 g/ha
Outline: as §2

[15] = tested on: southern crabgrass; assay: Test Example 5: herbicidal effect by foliage application, plastic box (Table 20, symbol F); format: in vivo, southern crabgrass (Digitaria ciliaris); conditions: 320 g/ha, foliage application after 14-day growth, evaluated three weeks after application
Outline: as §1

[16] = tested on: velvetleaf; assay: Test Example 5: herbicidal effect by foliage application, plastic box (Table 20, symbol M); format: in vivo, velvetleaf (Abutilon theophrasti); conditions: 320 g/ha, foliage application after 14-day growth, evaluated three weeks after application
Outline: as §1

CCCC(=O)Oc1c(C)nn(C)c(=O)c1-c1c(-c2ccc(OC(F)(F)F)cc2)sc2cc(F)ccc12 [3-144]
Herbicidal effect, A: late watergrass [1]: 5 (Herbicidal rate of 90% or more (almost completely withered)) | herbicidal effect on K: Italian ryegrass (evaluation grade 0-5) [2]: 0 (Herbicidal rate of 5% or less (almost no effect)) | Herbicidal effect by soil treatment, R: persian speedwell [3]: 0 (Herbicidal rate of 5% or less (almost no effect)) | Herbicidal effect by soil treatment, J: blackgrass [4]: 0 (Herbicidal rate of 5% or less (almost no effect)) | herbicidal effect on P: chickweed (evaluation grade 0-5) [5]: 5 (Herbicidal rate of 90% or more (almost completely withered)) | Herbicidal effect by soil treatment, P: chickweed [6]: 0 (Herbicidal rate of 5% or less (almost no effect)) | herbicidal effect on N: redroot pigweed (evaluation grade 0-5) [7]: 5 (Herbicidal rate of 90% or more (almost completely withered)) | herbicidal effect rating, A: late watergrass [8]: 2 (Herbicidal rate of 20% or more and less than 40%) | Herbicidal effect by soil treatment, I: wild oat [9]: 0 (Herbicidal rate of 5% or less (almost no effect)) | herbicidal effect rating, B: Japanese bulrush [10]: 3 (Herbicidal rate of 40% or more and less than 70%) | herbicidal effect rating, C: oval-leafed pondweed [11]: 2 (Herbicidal rate of 20% or more and less than 40%) | Herbicidal effect by soil treatment, K: Italian ryegrass [12]: 0 (Herbicidal rate of 5% or less (almost no effect)) | herbicidal effect on J: blackgrass (evaluation grade 0-5) [13]: 0 (Herbicidal rate of 5% or less (almost no effect)) | Herbicidal effect by soil treatment, O: lambsquarters [14]: 3 (Herbicidal rate of 40% or more and less than 70%) | herbicidal effect on F: southern crabgrass (evaluation grade 0-5) [15]: 1 (Herbicidal rate of 5% or more and less than 20%) | herbicidal effect on M: velvetleaf (evaluation grade 0-5) [16]: 4 (Herbicidal rate of 70% or more and less than 90%)

COc1ccc2c(-c3c(OC(=O)C4CCCCC4)c(C)nn(C)c3=O)c(-c3ccccc3OC)sc2c1 [3-156]
Herbicidal effect, A: late watergrass [1]: 5 (Herbicidal rate of 90% or more (almost completely withered)) | herbicidal effect on K: Italian ryegrass (evaluation grade 0-5) [2]: 3 (Herbicidal rate of 40% or more and less than 70%) | Herbicidal effect by soil treatment, R: persian speedwell [3]: 4 (Herbicidal rate of 70% or more and less than 90%) | Herbicidal effect by soil treatment, J: blackgrass [4]: 0 (Herbicidal rate of 5% or less (almost no effect)) | herbicidal effect on P: chickweed (evaluation grade 0-5) [5]: 5 (Herbicidal rate of 90% or more (almost completely withered)) | Herbicidal effect by soil treatment, P: chickweed [6]: 3 (Herbicidal rate of 40% or more and less than 70%) | herbicidal effect on N: redroot pigweed (evaluation grade 0-5) [7]: 5 (Herbicidal rate of 90% or more (almost completely withered)) | herbicidal effect rating, A: late watergrass [8]: 3 (Herbicidal rate of 40% or more and less than 70%) | Herbicidal effect by soil treatment, I: wild oat [9]: 0 (Herbicidal rate of 5% or less (almost no effect)) | herbicidal effect rating, B: Japanese bulrush [10]: 4 (Herbicidal rate of 70% or more and less than 90%) | herbicidal effect rating, C: oval-leafed pondweed [11]: 5 (Herbicidal rate of 90% or more (almost completely withered)) | Herbicidal effect by soil treatment, K: Italian ryegrass [12]: 0 (Herbicidal rate of 5% or less (almost no effect)) | herbicidal effect on J: blackgrass (evaluation grade 0-5) [13]: 4 (Herbicidal rate of 70% or more and less than 90%) | Herbicidal effect by soil treatment, O: lambsquarters [14]: 0 (Herbicidal rate of 5% or less (almost no effect)) | herbicidal effect on F: southern crabgrass (evaluation grade 0-5) [15]: 5 (Herbicidal rate of 90% or more (almost completely withered)) | herbicidal effect on M: velvetleaf (evaluation grade 0-5) [16]: 5 (Herbicidal rate of 90% or more (almost completely withered))

COc1ccccc1-c1sc2cc(SC)ccc2c1-c1c(O)c(C)nn(C)c1=O [3-163]
Herbicidal effect, A: late watergrass [1]: 3 (Herbicidal rate of 40% or more and less than 70%) | herbicidal effect on K: Italian ryegrass (evaluation grade 0-5) [2]: 4 (Herbicidal rate of 70% or more and less than 90%) | Herbicidal effect by soil treatment, R: persian speedwell [3]: 3 (Herbicidal rate of 40% or more and less than 70%) | Herbicidal effect by soil treatment, J: blackgrass [4]: 3 (Herbicidal rate of 40% or more and less than 70%) | herbicidal effect on P: chickweed (evaluation grade 0-5) [5]: 5 (Herbicidal rate of 90% or more (almost completely withered)) | Herbicidal effect by soil treatment, P: chickweed [6]: 4 (Herbicidal rate of 70% or more and less than 90%) | herbicidal effect on N: redroot pigweed (evaluation grade 0-5) [7]: 5 (Herbicidal rate of 90% or more (almost completely withered)) | herbicidal effect rating, A: late watergrass [8]: 3 (Herbicidal rate of 40% or more and less than 70%) | Herbicidal effect by soil treatment, I: wild oat [9]: 0 (Herbicidal rate of 5% or less (almost no effect)) | herbicidal effect rating, B: Japanese bulrush [10]: 0 (Herbicidal rate of 5% or less (almost no effect)) | herbicidal effect rating, C: oval-leafed pondweed [11]: 0 (Herbicidal rate of 5% or less (almost no effect)) | Herbicidal effect by soil treatment, K: Italian ryegrass [12]: 3 (Herbicidal rate of 40% or more and less than 70%) | herbicidal effect on J: blackgrass (evaluation grade 0-5) [13]: 5 (Herbicidal rate of 90% or more (almost completely withered)) | Herbicidal effect by soil treatment, O: lambsquarters [14]: 3 (Herbicidal rate of 40% or more and less than 70%) | herbicidal effect on F: southern crabgrass (evaluation grade 0-5) [15]: 5 (Herbicidal rate of 90% or more (almost completely withered)) | herbicidal effect on M: velvetleaf (evaluation grade 0-5) [16]: 5 (Herbicidal rate of 90% or more (almost completely withered))

CCCOc1ccc(-c2sc3c(F)cccc3c2-c2c(OC(=O)CCC)c(C)nn(C)c2=O)cc1 [4-010]
Herbicidal effect, A: late watergrass [1]: 3 (Herbicidal rate of 40% or more and less than 70%) | herbicidal effect on K: Italian ryegrass (evaluation grade 0-5) [2]: 4 (Herbicidal rate of 70% or more and less than 90%) | Herbicidal effect by soil treatment, R: persian speedwell [3]: 3 (Herbicidal rate of 40% or more and less than 70%) | Herbicidal effect by soil treatment, J: blackgrass [4]: 0 (Herbicidal rate of 5% or less (almost no effect)) | herbicidal effect on P: chickweed (evaluation grade 0-5) [5]: 5 (Herbicidal rate of 90% or more (almost completely withered)) | Herbicidal effect by soil treatment, P: chickweed [6]: 3 (Herbicidal rate of 40% or more and less than 70%) | herbicidal effect on N: redroot pigweed (evaluation grade 0-5) [7]: 5 (Herbicidal rate of 90% or more (almost completely withered)) | herbicidal effect rating, A: late watergrass [8]: 4 (Herbicidal rate of 70% or more and less than 90%) | Herbicidal effect by soil treatment, I: wild oat [9]: 0 (Herbicidal rate of 5% or less (almost no effect)) | herbicidal effect rating, B: Japanese bulrush [10]: 0 (Herbicidal rate of 5% or less (almost no effect)) | herbicidal effect rating, C: oval-leafed pondweed [11]: 3 (Herbicidal rate of 40% or more and less than 70%) | Herbicidal effect by soil treatment, K: Italian ryegrass [12]: 2 (Herbicidal rate of 20% or more and less than 40%) | herbicidal effect on J: blackgrass (evaluation grade 0-5) [13]: 4 (Herbicidal rate of 70% or more and less than 90%) | Herbicidal effect by soil treatment, O: lambsquarters [14]: 3 (Herbicidal rate of 40% or more and less than 70%) | herbicidal effect on F: southern crabgrass (evaluation grade 0-5) [15]: 0 (Herbicidal rate of 5% or less (almost no effect)) | herbicidal effect on M: velvetleaf (evaluation grade 0-5) [16]: 3 (Herbicidal rate of 40% or more and less than 70%)

CCCC(=O)Oc1c(C)nn(C)c(=O)c1-c1c(-c2ccc(OC)cc2)sc2c(Cl)cccc12 [4-024]
Herbicidal effect, A: late watergrass [1]: 3 (Herbicidal rate of 40% or more and less than 70%) | herbicidal effect on K: Italian ryegrass (evaluation grade 0-5) [2]: 4 (Herbicidal rate of 70% or more and less than 90%) | Herbicidal effect by soil treatment, R: persian speedwell [3]: 0 (Herbicidal rate of 5% or less (almost no effect)) | Herbicidal effect by soil treatment, J: blackgrass [4]: 0 (Herbicidal rate of 5% or less (almost no effect)) | herbicidal effect on P: chickweed (evaluation grade 0-5) [5]: 5 (Herbicidal rate of 90% or more (almost completely withered)) | Herbicidal effect by soil treatment, P: chickweed [6]: 0 (Herbicidal rate of 5% or less (almost no effect)) | herbicidal effect on N: redroot pigweed (evaluation grade 0-5) [7]: 5 (Herbicidal rate of 90% or more (almost completely withered)) | herbicidal effect rating, A: late watergrass [8]: 3 (Herbicidal rate of 40% or more and less than 70%) | Herbicidal effect by soil treatment, I: wild oat [9]: 0 (Herbicidal rate of 5% or less (almost no effect)) | herbicidal effect rating, B: Japanese bulrush [10]: 0 (Herbicidal rate of 5% or less (almost no effect)) | herbicidal effect rating, C: oval-leafed pondweed [11]: 0 (Herbicidal rate of 5% or less (almost no effect)) | Herbicidal effect by soil treatment, K: Italian ryegrass [12]: 0 (Herbicidal rate of 5% or less (almost no effect)) | herbicidal effect on J: blackgrass (evaluation grade 0-5) [13]: 0 (Herbicidal rate of 5% or less (almost no effect)) | Herbicidal effect by soil treatment, O: lambsquarters [14]: 0 (Herbicidal rate of 5% or less (almost no effect)) | herbicidal effect on F: southern crabgrass (evaluation grade 0-5) [15]: 1 (Herbicidal rate of 5% or more and less than 20%) | herbicidal effect on M: velvetleaf (evaluation grade 0-5) [16]: 4 (Herbicidal rate of 70% or more and less than 90%)
